Here are results for 27 molecules from US6372737B1 (priority 1996, dated 2002).

What all share (format): in vivo
Assay [1] concerns Erysiphe graminis f.sp. hordei. In words: Erysiphe test (barley)/curative. The following applies: curative, 7 days after inoculation. On the procedure: (§1) Solvent: 25 parts by weight of N,N-dimethylacetamide
(§2) Emulsifier: 0.6 part by weight of alkylaryl polyglycol ether
(§3) To produce a suitable preparation of active compound, 1 part by weight of active compound or active compound combination is mixed with the stated amounts of solvent and emulsifier, and the concentrate is diluted with water to the desired concentration.
To test for curative activity, young plants are dusted with spores of Erysiphe graminis f.sp. hordei. 48 hours after the inoculation, the plants are sprayed with the preparation of active compound at the stated application rate.
(§4) The plants are placed in a greenhouse at a temperature of about 20° C. and a relative atmospheric humidity of about 80%, in order to promote the development of mildew pustules.
(§5) Evaluation is carried out 7 days after the inoculation. 0% means an efficacy which corresponds to that of the control, whereas an efficacy of 100% means that no infection is observed.

Assay [2] concerns Leptosphaeria nodorum. Kind of assay: Leptosphaeria nodorum test (wheat)/protective. The following applies: application rate 6.25 g/ha, protective, 10 days after inoculation; for pest or weed control at 6.25 g/ha: Parastagonospora nodorum, 240 h, read-out: Efficacy in %. As for the experimental part: as §1, §2, §3
To test for protective activity, young plants are sprayed with the preparation of active compound at the stated application rate. After the spray coating has dried on, the plants are sprayed with a spore suspension of Leptosphaeria nodorum. The plants remain in an incubation cabin at 20EC and 100% relative atmospheric humidity for 48 hours.
The plants are placed in a greenhouse at a temperature of about 15° C. and a relative atmospheric humidity of 80%.
(§6) Evaluation is carried out 10 days after the inoculation. 0% means an efficacy which corresponds to that of the control, whereas an efficacy of 100% means that no infection is observed.

Assay [3] concerns Puccinia recondita. Kind of assay: Puccinia test (wheat)/protective. The following applies: application rate 6.25 g/ha, protective, 10 days after inoculation; for pest or weed control at 6.25 g/ha: Puccinia recondita, 240 h, read-out: Efficacy in %. On the procedure:
as §1, §2, §3
To test for protective activity, young plants are sprayed with the preparation of active compound at the stated application rate. After the spray coating has dried on, the plants are sprayed with a conidia suspension of Puccinia recondita. The plants remain in an incubation cabin at 20° C. and 100% relative atmospheric humidity for 48 hours.
The plants are then placed in a greenhouse at a temperature of about 20° C. and a relative atmospheric humidity of 80%, in order to promote the development of rust pustules.
as §6

A further assay concerns Sphaerotheca fuliginea. Kind of assay: Sphaerotheca test (cucumber)/protective. The following applies: protective, 10 days after inoculation; for Emax at 2.5 g/ha / Emax at 12.5 g/ha: Podosphaera fuliginea, 240 h, read-out: % efficacy; for Emax at 12.5 g/ha: application rate 12.5 g/ha. As for the experimental part: To test for protective activity, young plants are sprayed with the commercial active compound preparation at the stated application rate. After the spray coating has dried on, the plants are inoculated with an aqueous spore suspension of Sphaerotheca fuliginea. The plants then remain in a greenhouse at about 23° C. and about 70% relative atmospheric humidity.
Evaluation is carried out 10 days after the inoculation. 0% means an efficacy corresponding to that of the control, and an efficacy of 100% means that no infection is observed.

A further assay has as its system Phytophthora infestans. In words: whole plant or invertebrate.
The next assay has as its system Fusarium nivale. In words: Fusarium nivale test (triticale)/seed treatment. The following applies: dry seed dressing, about 3 weeks after sowing.
For assay [4], the system named is Erysiphe graminis fsp. tritici. In words: Erysiphe test (wheat)/protective. The following applies: protective, 7 days after inoculation. As for the experimental part: as §1, §2, §3
To test for protective activity, young plants are sprayed with the preparation of active compound at the stated application rate.
After the spray coating has dried on, the plants are dusted with spores of Erysiphe graminis fsp. tritici.
as §4, §5

A further assay has as its system Botrytis cinerea. Kind of assay: Botrytis test (beans)/protective. The following applies: 48 h, application rate 250 g/ha, protective, two days after inoculation, read-out: % efficacy. As for the experimental part: To test for protective activity, young plants are sprayed with the commercial active compound preparation at the stated application rate. After the spray coating has dried on, 2 small pieces of agar covered with Botrytis cinerea are placed on each leaf. The inoculated plants are placed in a darkened chamber at about 20° C. and 100% relative atmospheric humidity.
Two days after the inoculation, the size of the infected spots on the leaves is evaluated. 0% means an efficacy corresponding to that of the control, and an efficacy of 100% means that no infection is observed.

Assay [5] relates to Erysiphe graminis f.sp. tritici. In words: Erysiphe test (wheat)/curative. The following applies: curative, 7 days after inoculation. As for the experimental part: as §1, §2, §3
To test for curative activity, young plants are dusted with spores of Erysiphe graminis f.sp. tritici. 48 hours after the inoculation, the plants are sprayed with the preparation of active compound at the stated application rate.
as §4, §5

Assay [6] has as its system Leptosphaeria nodorum. Kind of assay: Leptosphaeria nodorum test (wheat)/curative. The following applies: curative, 10 days after inoculation. On the procedure: as §1, §2, §3
To test for curative activity, young plants are sprayed with a conidia suspension of Leptosphaeria nodorum. The plants remain in an incubation cabin at 20° C. and 100% relative atmospheric humidity for 48 hours and are then sprayed with the preparation of active compound at the stated application rate.
The plants are placed in a greenhouse at a temperature of about 15° C. and a relative atmospheric humidity of about 80%.
as §6

Assay [7] concerns Puccinia recondita. In words: Puccinia test (wheat)/curative. The following applies: application rate 6.25 g/ha, curative, 10 days after inoculation. On the procedure:
as §1, §2, §3
To test for curative activity, young plants are sprayed with a conidia suspension of Puccinia recondita. The plants remain in an incubation cabin at 20° C. and 100% relative atmospheric humidity for 48 hours. The plants are subsequently sprayed with the preparation of active compound at the stated application rate.
The plants are placed in a greenhouse at a temperature of about 20° C. and a relative atmospheric humidity of about 80%, in order to promote the development of rust pustules.
as §6

Where [8] appears, read: Phytophthora infestans, in Solanum lycopersicum, 72 h, read-out: % efficacy.
[9] abbreviates: application rate 25 mg/kg of seed.
Setting [10] is: application rate 75 mg/kg of seed.
[11] abbreviates: application rate 5 g/ha, tomato, protective, 3 days after inoculation.

Description for Fusarium nivale: To dress the seed, the infected seed together with the seed dressing is shaken for 3 minutes in a sealed glass flask.
About 3 weeks after sowing, the plants are evaluated for symptoms of snow mould.

Take `Fc1ccc([C@]2(Cn3cncn3)O[C@H]2c2ccccc2Cl)cc1` (racemic) [(V), epoxiconazole]: the Efficacy in % in assay [1] (application rate 12.5 g/ha) is 92%. Further, the values for the pest or weed control at 6.25 g/ha in the assay on Leptosphaeria nodorum [2] and in the assay with Puccinia recondita [3] were 50% and 81%, respectively.
As to `CN(C)S(=O)(=O)N(SC(F)(Cl)Cl)c1ccccc1` [(B1), dichlorofluanide], the “% efficacy” value in the assay on Sphaerotheca fuliginea (application rate 25 g/ha) worked out at 20%.
For `Cc1ccc(N(SC(F)(Cl)Cl)S(=O)(=O)N(C)C)cc1` [(B2), tolylfluanide], the “% efficacy” value in the assay on Sphaerotheca fuliginea (application rate 25 g/ha) was 22%.
In the case of `CC(C)(C)C(O)C(Oc1ccc(-c2ccccc2)cc1)n1cncn1` (stereo not drawn) [(C), bitertanol], the Emax at 2.5 g/ha in the assay on Sphaerotheca fuliginea (application rate 2.5 g/ha) amounted to 20%.
As for `CC(C)(C)C(O)(CCc1ccc(Cl)cc1)Cn1cncn1` (stereo not drawn) [(D), tebuconazole], in the assay with Phytophthora infestans (setting [8]), the Emax at 5 g/ha turned out to be 26%. In addition, the Efficacy in % was 20% in the assay on Fusarium nivale (setting [9]), 33% in assay [1] (application rate 6.25 g/ha), 83% in [1] (application rate 25 g/ha) and 0% in [4] (application rate 6.25 g/ha). Moreover, the pest or weed control at 6.25 g/ha in the assay on Leptosphaeria nodorum [2] is 25%; with Puccinia recondita [3], 38%.
`CC(C)(C)C(=O)C(Oc1ccc(Cl)cc1)n1cncn1` (stereo not drawn) [(E), triadimefon]: the Emax at 2.5 g/ha with Sphaerotheca fuliginea (application rate 2.5 g/ha) came to 30%.
In the assay on Fusarium nivale (setting [10]), `N#Cc1c[nH]cc1-c1cccc(Cl)c1Cl` [(Fenpiclonil) V, fenpiclonil] yielded an Efficacy in % of 67%.
In the case of `O=C1c2ccccc2C(=O)N1SC(Cl)(Cl)Cl` [(K), folpet], the Emax at 10 g/ha in the assay with Phytophthora infestans (setting [8]) turned out to be 27%.
Consider `COc1ccc(/C(=C/C(=O)N2CCOCC2)c2ccc(Cl)cc2)cc1OC` [(L), dimetomorph], for which the Emax at 1 g/ha in the assay with Phytophthora infestans (setting [8]) is 0%.
Turning to `COCC(=O)N(c1c(C)cccc1C)C(C)C(=O)OC` (stereo not drawn) [(N), metalaxyl], the Emax at 5 g/ha in the assay on Phytophthora infestans (setting [8]) was 1%.
For `CCO[PH](=O)O` [(O), fosetyl-Al], the Emax at 250 g/ha with Botrytis cinerea was 4%.
In the case of `Cc1cc(C)nc(Nc2ccccc2)n1` [(Q), pyrimethanil], the Emax at 12.5 g/ha with Sphaerotheca fuliginea came to 10%.
Take `Cc1cc(C2CC2)nc(Nc2ccccc2)n1` [(R), cyprodinyl]: in the assay with Phytophthora infestans (setting [8]), the Emax at 5 g/ha was found to be 0%. In addition, the Efficacy in % was determined as 17% in assay [5] (application rate 25 g/ha), 50% in the assay with Leptosphaeria nodorum [6] (application rate 6.25 g/ha), 33% in the assay on Puccinia recondita [7] and 0% in assay [4] (application rate 12.5 g/ha). Also, the pest or weed control at 6.25 g/ha was 25% in the assay with Leptosphaeria nodorum [2] and 13% in the assay with Puccinia recondita [3].
Regarding `CO/N=C(\C(=O)OC)c1ccccc1COc1ccccc1C` [(T), kresoxim-methyl], in the assay with Phytophthora infestans (setting [8]), the Emax at 1 g/ha worked out at 14%. Also, the Efficacy in % in assay [1] (application rate 12.5 g/ha) is given as 67%; in assay [5] (application rate 6.25 g/ha), 0%; in the assay on Leptosphaeria nodorum [6] (application rate 12.5 g/ha), 50%; in [4] (application rate 25 g/ha), 86%. Further, the pest or weed control at 6.25 g/ha in the assay on Leptosphaeria nodorum [2] turned out to be 0%; with Puccinia recondita [3] it was 25%.
Regarding `CO/C=C(/C(=O)OC)c1ccccc1Oc1cc(Oc2ccccc2C#N)ncn1` [(U), azoxystrobin], the Emax at 2.5 g/ha in the assay on Sphaerotheca fuliginea (application rate 2.5 g/ha) amounted to 57%.
Turning to `CC1(C)CCC(Cc2ccc(Cl)cc2)C1(O)Cn1cncn1` (stereo not drawn) [(W), metconazole], the Efficacy in % was 33% in assay [1] (application rate 6.25 g/ha), 25% with Leptosphaeria nodorum [6] (application rate 12.5 g/ha), 50% with Puccinia recondita [7] and 43% in [4] (application rate 6.25 g/ha). Moreover, the pest or weed control at 6.25 g/ha in the assay on Leptosphaeria nodorum [2] is 50%; in the assay on Puccinia recondita [3] it was 75%.
As for `N#Cc1c[nH]cc1-c1cccc2c1OC(F)(F)O2` [(Y), fludioxonil], the Efficacy in % is recorded as 92% in the assay with Fusarium nivale (setting [10]) and 0% in [5] (application rate 25 g/ha). In addition, the pest or weed control at 6.25 g/ha in the assay on Leptosphaeria nodorum [2] was determined as 25%; in the assay with Puccinia recondita [3], 13%.
As for `CSC(=O)c1cccc2nnsc12` [(β)], the “% efficacy” value in the assay with Phytophthora infestans (setting [11]) was found to be 0%.
With `CCCN(CC)CC1COC2(CCC(C(C)(C)C)CC2)O1` (stereo not drawn) [(δ), 8-t-butyl-2-(N-ethyl-N-n-propyl-amino)-methyl-1,4-dioxaspiro[5.4]-decane], the “% efficacy” value in the assay on Sphaerotheca fuliginea (application rate 2.5 g/ha) was 10%. Also, the Efficacy in % worked out at 0% in [1] (application rate 6.25 g/ha); 25% in the assay with Leptosphaeria nodorum [6] (application rate 12.5 g/ha); 14% in assay [4] (application rate 6.25 g/ha); 25% in the assay on Leptosphaeria nodorum [2]; 13% with Puccinia recondita [3].
As for `CC1(C(=O)Nc2ccc(O)c(Cl)c2Cl)CCCCC1` [(ε), 2,3-dichloro-4-(1-methylcyclohexylcarbonylamino)-phenol], the Emax at 5 g/ha in the assay on Phytophthora infestans (setting [8]) was found to be 14%.
Take `O=C1C2CC=CCC2C(=O)N1SC(Cl)(Cl)Cl` (stereo not drawn) [(θ), captan]: the Emax at 12.5 g/ha in the assay on Sphaerotheca fuliginea amounted to 0%.
As to `O=[N+]([O-])c1cc(C(F)(F)F)c(Cl)c([N+](=O)[O-])c1Nc1ncc(C(F)(F)F)cc1Cl` [(π), fluazinam], in the assay on Phytophthora infestans (setting [8]), the Emax at 5 g/ha was found to be 11%.
Turning to `O=C(Nc1ccccc1)N(Cc1ccc(Cl)cc1)C1CCCC1` [(ρ), pencycuron], in the assay on Fusarium nivale (setting [9]), the Efficacy in % is 29%.
In the case of `CCC1(C(=O)N[C@H](C)c2ccc(Cl)cc2)C(C)C1(Cl)Cl` (stereo partly drawn) [(ω), N-(R)-[1-(4-chloro-phenyl)-ethyl]-2,2-dichloro-1-ethyl-3t-methyl-1r-cyclopropane-carboxarnide], the “% efficacy” value in the assay on Phytophthora infestans (setting [11]) was found to be 5%.
Regarding cymoxanil [(M)], the “% efficacy” value with Phytophthora infestans (in vivo) is 12%.
Consider mancozeb [(II)], for which the “% efficacy” value with Phytophthora infestans (application rate 50 g/ha, tomato, protective, 3 days after inoculation) is reported as 54%.
Take propineb [(A)]: in the assay with Sphaerotheca fuliginea (application rate 25 g/ha), the “% efficacy” value was 45%.
